Reference: US9278086B2, “Combination therapy and uses thereof for treatment and prevention of parasitic infection and disease” (The Royal Institution for the Advancement of …, priority 2010, dated 2016)

What was measured:
[1] = system: Plasmodium chabaudi; assay: P. chabaudi infection (10^5 pRBC i.v.) in A/J mice, continuous daily cysteamine treatment, blood parasitemia; type: in vivo
Experimental: A/J and C57BL/6 (B6) mice were purchased from the Jackson Laboratories (Bar Harbor, Me.) and were housed at McGill University according to the guidelines of the Canadian Council on Animal Care. An LDH virus-free isolate of P. chabaudi AS was maintained by weekly passage in A/J mice. […] Following infection, the percentage of pRBC was determined daily on thin blood smears stained with Dif-Quik™ (Dade Behring, Newark, Del.), as described (Fortin A, et al. (2001) Proc Natl Acad Sci USA 98: 10793-10798).
Cysteamine hydrochloride (Sigma, Burlington ON) was prepared in PBS. […]
To gain more insight into the anti-malarial effect of cysteamine (Cys) in vivo, the pharmacokinetic characteristics (plasma level) of Cys administered through the sub-cutaneous (s.c.) and intra-peritoneal (i.p) routes was compared. […] Parasitemia was monitored on thin blood smears at days 5, 6 and 7 following infection (FIG. 1B). […]
It was next determined whether Cys at equivalent dosing to that used in the clinical treatment of nephropathic cystinosis in humans has an effect on the course and severity of P. chabaudi infection in mice. […] The efficacy of different regimens of 50 mg/kg Cys s.c. (number of injections, interval between injections) on replication of P. chabaudi in vivo was evaluated. […]

[2] = system: Plasmodium chabaudi; assay: Progression, resolution and survival of lethal P. chabaudi infection (10^6 pRBC i.v.) in A/J mice; type: in vivo; details: Cys alone 60 mg/kg, days 0-3
Experimental: A/J and C57BL/6 (B6) mice were purchased from the Jackson Laboratories (Bar Harbor, Me.) and were housed at McGill University according to the guidelines of the Canadian Council on Animal Care. An LDH virus-free isolate of P. chabaudi AS was maintained by weekly passage in A/J mice. Mice were infected intravenously into the tail vein (i.v.) with 10^6 or 10^7 pRBC suspended in pyrogen-free saline. Following infection, the percentage of pRBC was determined daily on thin blood smears stained with Dif-Quik™ (Dade Behring, Newark, Del.), as described (Fortin A, et al. (2001) Proc Natl Acad Sci USA 98: 10793-10798).
Cysteamine hydrochloride (Sigma, Burlington ON) was prepared in PBS. Chloroquine hydrochloride, artesunate and dihydroartemisinin were provided by Dafra Pharmaceuticals; chloroquine was prepared in PBS, artesunate and DHA were prepared in 5% sodium bicarbonate and diluted in water to appropriate concentrations. All solutions were prepared fresh daily, filter sterilized and injections were performed intra-peritoneally (i.p) or subcutaneously (s.c.) for 4 days or according to treatment regimen. Mice were weighed prior to treatment to determine appropriate doses and injection volumes ranged from 100-400 μL per mouse. In the case of animals treated with two drugs, artemisinin derivatives were administered first (due to the short half life of cysteamine), followed by cysteamine 5-10 minutes later on alternate sides. Untreated control animals were injected with PBS alone.
It was investigated if low dose Cys could potentiate standard doses of ART that show therapeutic activity in vivo and concurrently determined possible long-term effects on patent parasitemia, resolution of infection and survival in a lethal infection model. In this protocol, mice were infected with 10^6 pRBC P. chabaudi (i.v.) and treated with Cys (60 mg/kg) and/or ART (0.5, 1, 2, 5 and 10 mg/kg) for 4 days (days 0-3), while blood parasitemia and survival were followed for 22 days. Control animals treated with either PBS or Cys alone (60 mg/kg) developed high parasite burdens, which peaked at day 6, and all mice succumbed to the infection by day 7 (FIGS. 5A and 5C). […] Likewise, although all mice treated with 0.5 mg/kg ART succumbed to the infection early (day 8), mice additionally receiving Cys survived until day 9; moreover, addition of Cys to 1.0 mg/kg ART completely rescued animals from lethality of infection, with 100% survival in this group (FIGS. 5B, 5C).

[3] = in vivo; parameters: species or system mice; details: mouse
Experimental: Cysteamine was detected in plasma by high performance liquid chromatography analysis with ultraviolet detection (Dias V C, et al. (1998) Clin Chem 44: 2199-2201). Briefly, blood was collected in EDTA/heparin-containing tubes, and plasma was obtained by centrifugation. Plasma thiols were reduced by treatment with Tris(2-carboxyethyl)phosphine (0.05M final concentration, 20 min. at 20° C.), and proteins were precipitated with tri-chloroacetic acid (TCA, 10% final concentration). Free thiols from the protein-free supernatant were derivatized using SBD-F ([…]), used at a final concentration of 0.2 mg/ml (1 hr at 60° C.) in 0.05 M borate buffer (pH 9.5). The mixture was then analyzed by HPLC: the mobile phase consisted of an aqueous solvent (0.1M acetic acid, 0.1 sodium acetate, pH 4.3) running on a Supelco™ LC-8 column, and elution of plasma analytes was with a 0-10% acetonitrile gradient. Detection of SBD-F derivatized analytes was by reading fluorescence at 515 nm (excitation at 385 nm). Cysteamine elution peaks were quantified (surface area), and plasma concentrations were calculated using a set of internal cysteamine standards processed at the same time. Area under the curve (AUCt0-tlast) was calculated using the trapezoid approximation method.
To gain more insight into the anti-malarial effect of cysteamine (Cys) in vivo, the pharmacokinetic characteristics (plasma level) of Cys administered through the sub-cutaneous (s.c.) and intra-peritoneal (i.p) routes was compared. […] To determine which pharmacokinetic parameter (AUC vs. Cmax) is important for efficacy against Plasmodium, the i.p. and s.c. routes of injection were compared in a continuous treatment regimen, starting one day prior to infection (10^5 pRBC of P. chabaudi, i.v.) and continuing daily for 7 days. Parasitemia was monitored on thin blood smears at days 5, 6 and 7 following infection (FIG. 1B). Treatment of infected animals with 120 mg/kg of Cys administered either s.c. or i.p. caused a highly significant (p<0.01) 50% reduction in parasitemia at day 5 and 6, relative to saline injected controls.
It was next determined whether Cys at equivalent dosing to that used in the clinical treatment of nephropathic cystinosis in humans has an effect on the course and severity of P. chabaudi infection in mice. In cystinosis patients, Cys is given orally as Cys bitartrate (Cystagon®). […] The efficacy of different regimens of 50 mg/kg Cys s.c. (number of injections, interval between injections) on replication of P. chabaudi in vivo was evaluated. P. chabaudi-infected mice were treated daily, starting at day −1 and continuing to day 10, with either 1×150 mg/kg, 3×50 mg/kg given at 2 hr intervals, 4×50 mg/kg given at 2 hr intervals or 3×50 mg/kg given at 1 hr intervals of Cys, and blood parasitemia was monitored at days 5, 6 and 7 (FIG. 2B).

NCCS [Cysteamine]
reduction in parasitemia relative to saline injected controls ([1]; 120 mg/kg Cys daily, either s.c. or i.p., day 5 and 6, p<0.01): 50% | reduction of blood parasitemia ([1]; Cys s.c. daily, all regimens: 1×150 mg/kg, 3×50 or 4×50 mg/kg at 2 hr, 3×50 mg/kg at 1 hr intervals (strongest), days 5, 6, 7): 40-67% | day at which parasite burdens peaked [2]: 6 days | day by which all mice succumbed to the infection [2]: ≤ 7 days | AUC ([3]; ip, 120 mg/kg): 405 µM·h | Cmax ([3]; ip, 120 mg/kg): 665 µM | Tmax ([3]; ip, 120 mg/kg): < 5 min | AUC ([3]; sc, 50 mg/kg): 47.4 µM·h | Cmax ([3]; sc, 50 mg/kg): ~80 µM | AUC ([3]; sc, 120 mg/kg): 255 µM·h | Cmax ([3]; sc, 120 mg/kg): 250 µM | Tmax ([3]; sc, 120 mg/kg): 30 min
